pKd: −log10 of the molar value. “Also recorded” adds a separate entry of the source. Ends that are not written are not given here.
Key:
[1] = tested on: E. coli 0111:B4 (smooth) bacteria; experiment: Radial diffusion bactericidal assay, E. coli 0111:B4; format: cell-based; details: radial diffusion; for pmol added to well to achieve a 30 mm^2 bactericidal zone, E. coli O111:B4: PROBIT analysis, E. coli O111:B4 (smooth)
Staphylococcus aureus = experiment: Radial diffusion bactericidal assay, Staphylococcus aureus; format: cell-based; details: for pmol added to well to achieve a 30 mm^2 bactericidal zone, S. aureus: radial diffusion, PROBIT analysis
[2] = tested on: rough mutant E. coli J5 bacteria; experiment: Radial diffusion bactericidal assay, E. coli J5; format: cell-based; details: radial diffusion; for pmol added to well to achieve a 30 mm^2 bactericidal zone, E. coli J5: PROBIT analysis, E. coli J5 (rough); for bactericidal activity (in words): E. coli J5
In short: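 Log-phase bacteria (3 h at 37 °C in tryptic soy broth), washed in 10 mM sodium phosphate pH 7.4, were embedded at 4×10^6 CFU/mL in underlayer agarose. BPI proteolytic fragments (5 or 10 μL) went into 3 mm wells for 3 h at 37 °C, then agarose overlay and overnight 37 °C growth. Clear zones were measured by micrometer.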

[3] = tested on: L-form of S. aureus ATCC 19640; experiment: Activity against L-forms of gram-positive bacteria; format: cell-based
Procedure: The bactericidal capacity of BPI peptides provided by the invention was also tested against Gram-positive bacteria (See Table VIII A). […] In addition, peptides were tested for their activity against L-forms of gram-positive bacteria, such as the L-form of S. aureus ATCC 19640.

[4] = tested on: multi-resistant strain E. coli 19536; experiment: Radial diffusion bactericidal assay, multi-antibiotic resistant E. coli 19536; format: cell-based
Procedure: (§1) These studies were conducted substantially following the procedures used in Example 2.
In order to test the bactericidal activity of BPI peptides against multi-antibiotic resistant E. coli, a multi-resistant strain E. coli 19536 (ampR 16 μg/mL; ceftazidimeR>16 μg/mL; ceftriazoneR>16 μg/mL) was tested. This strain is a clinical isolate obtained from the Baxter Microscan® library (Sacramento, Calif.). An overnight culture of E. coli 19536 was tested as described in Example 2 and part A above. Test BPI peptides were 2-fold serially diluted in D-PBS starting at about 1 mg/mL.

[5] = LPS binding by tryptophan fluorescence quenching
Description: (§2) The naturally-occurring amino acid tryptophan can emit light (i.e., it fluoresces) having a wavelength between 300 and 400 nm after excitation with light having a wavelength of between about 280 nm and 290 nm, preferably 285 nm. The amount of emitted light produced by such fluorescence is known to be affected by the local environment, including pH and buffer conditions, as well as binding interactions between proteins and other molecules. Some BPI functional domain peptides derived from domains II and III contain tryptophan residues, and tryptophan fluorescence was used to assay binding interactions between the BPI functional domain peptides of the invention and LPS or heparin.
(§3) Tryptophan fluorescence of the BPI functional domain peptides of the invention was determined in the presence or absence of LPS or heparin using a SPEX Fluorolog fluorimeter. Samples were excited with 285 nm light using a 0.25 nm slitwidth. Emission wavelengths were scanned between 300-400 nm using a 1.25 nm slitwidth. Data were accumulated as the average of three determinations performed over an approximately 5 min time span. Samples were maintained at 25° C. or 37° C. during the course of the experiments using a circulating water bath. Crab endotoxin binding protein (CEBP), a protein wherein the intrinsic fluorescence of tryptophan residues is affected by binding to LPS, was used as a positive control. (See Wainwright et al., 1990, Cellular and Molecular Aspects of Endotoxin Reactions, Nowotny et al., eds., Elsevier Science Publishing B.V., The Netherlands, pp. 315-325).
(§4) Kd values were determined by Scatchard-type Stern-Volmer plots of the quenching data as the negative inverse of the slope of such plots. Comparing the data for BPI.10, BPI.46 and BPI.47, it is seen that as the Kd decreased (indicating an increase in avidity for LPS), the percent fluorescence quenching increased. The differences between these peptides include replacement of basic and polar amino acid residues with non-polar residues in […] as compared with BPI.10. In contrast, as the Kd of heparin binding decreased, a corresponding increase in the percentage of fluorescence quenching was not detected.

[6] = 3H-heparin binding assay (affinity and capacity); details: for Heparin Capacity: heparin bound at saturation; for pKd: read-out: Heparin Affinity
In short: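 Bound 3H-heparin was counted by liquid scintillation after 1 h incubation at 4 °C with fragments immobilised on PVDF-bottomed wells, then washing in blocking buffer. Signal was corrected for BSA-related background, and varying amounts of rBPI23 were used as positive control.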

[7] = Heparin binding by tryptophan fluorescence quenching
Description: as §2, §3, §4

[8] = tested on: Klebsiella pneumoniae 19645; experiment: Radial diffusion bactericidal assay, antibiotic resistant Klebsiella pneumoniae 19645; format: cell-based
Procedure: as §1
In order to test the bactericidal activity of BPI peptides on antibiotic resistant strains of Klebsiella pneumoniae, the multi-resistant clinically isolated strain 19645 was tested as in Example 2 and above. […] This strain was obtained from the Baxter Microscan® library (Sacramento, Calif.). An overnight culture of Klebsiella pneumoniae 19645 and a non-resistant strain (ATCC 29011) were diluted 1:50 into fresh tryptic soy broth and incubated for 3 hours at 37° C. to attain log phase. The overnight cultures were tested as described in Example 2 and part A above.

RAW 264.7 cells = experiment: LPS neutralization cellular proliferation assay, RAW 264.7 cells; format: cell-based, mouse
In short: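 Mouse RAW 264.7 cells were primed 24 h with 50U/mL mouse γ-interferon, then exposed about 15 h to E. coli O113 LPS in serum-free RPMI with or without BPI peptides at 25 ng/mL–50 μg/mL. Proliferation was quantified by [^3H]-thymidine uptake, 1 μCi/well, added at 5 h.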

E. coli O75 = experiment: Radial diffusion bactericidal assay, E. coli O75; format: cell-based; details: FIG. 11d; up to about 2000 pmol
E. coli strain 07-K1 = experiment: Radial diffusion bactericidal assay, E. coli 07-K1; format: cell-based; details: FIG. 10c
Procedure: BPI proteolytic fragments produced according to Example 1 were screened for bactericidal effects using rough mutant E. coli J5 bacteria in a radial diffusion assay. Specifically, an overnight culture of E. coli J5 was diluted 1:50 into fresh tryptic soy broth and incubated for 3 hours at 37° C. to attain log phase growth of the culture. Bacteria were then pelleted at 3,000 rpm for 5 minutes in a Sorvall RT6000B centrifuge (Sorvall Instruments, Newton, Conn.). 5 mL of 10 mM sodium phosphate buffer (pH 7.4) was added and the preparation was re-pelleted. […] The bacteria were diluted to 4×10^6 CFU/mL in 10 mL of molten underlayer agarose (at approximately 45° C.) and inverted repeatedly to mix in 15 mL polypropylene tubes conventionally used for this purpose.
The entire contents of such tubes were then poured into a level square petri dish and distributed evenly by rocking the dish side-to-side. […] A series of wells were then punched into the hardened agarose using a sterile 3 mm punch attached to a vacuum apparatus. The punch was sterilized with 100% alcohol and allowed to air dry prior to use to avoid contaminating the bacterial culture.
5 or 10 μL of each of the BPI fragments were carefully pipetted into each well. As a negative control, dilution buffer (pH 8.3) was added to a separate well, and rBPI23 at concentrations of 5 μg/mL and 1 μg/mL were also added as positive controls. Each plate was incubated at 37° C. for 3 hours, and then 10 mL of molten overlayer agarose (at approximately 45° C.) was added into the level petri dish, allowed to harden and incubated overnight at 37° C. […] The bacterial zones were measured with a micrometer.
Additional experiments were performed using various other bacteria as target cells to examine the range of bactericidal killing of these BPI functional domain peptides.

Klebsiella pneumoniae = experiment: Radial diffusion bactericidal assay, Klebsiella pneumoniae; format: cell-based
E. coli 0113 LPS = experiment: Limulus Amoebocyte Lysate (LAL) inhibition assay; format: biochemical
In short: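 BPI proteolytic fragments incubated with E. coli 0113 LPS (4 ng/mL final) for 3 h at 37 °C, then diluted in D-PBS to 200 pg/mL LPS for chromogenic LAL. Lysate 25 min, substrate 20–30 min at room temperature, acetic acid stop; OD405 expressed as percent LPS inhibition.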

E. coli O18:K1:H7 = experiment: Radial diffusion bactericidal assay, E. coli O18:K1:H7; format: cell-based; details: FIG. 11b; up to about 2000 pmol
Pseudomonas aeruginosa = experiment: Radial diffusion bactericidal assay, Pseudomonas aeruginosa; format: cell-based; details: FIG. 11a; up to about 2000 pmol

Q: For IKISGKWKAQKRKLK [BPI.120], which “pmol added to well to achieve a 30 mm^2 bactericidal zone, E. coli O111:B4” value (“pmol added to well … E. coli O111:B4” below) [1] is on record?
A: b (no detectable activity up to 5 μg/well)

Q: And the “pmol added to well to achieve a 30 mm^2 bactericidal zone, S. aureus” value (Staphylococcus aureus)?
A: b (no detectable activity up to 5 μg/well)

Q: And the “pmol added to well to achieve a 30 mm^2 bactericidal zone, E. coli J5” value (“pmol added to well … E. coli J5” below) [2]?
A: b (no detectable activity up to 5 μg/well)

Q: And the “activity against L-form bacteria (in words)” value [3]?
A: active against these L-form bacteria

Q: For KWKAAARFLKKWKAAARFLKKWKAAARFLK [BPI.69], which “bactericidal activity (in words)” value [4] is on record?
A: activity against multi-antibiotic resistant E. coli

Q: What about the “Quenching LPS” value [5] of the same sequence?
A: 72%

Q: What about the pKd ([5]; Stern-Volmer plots) of the same sequence?
A: 7.24

Q: And the “heparin binding capacity (in words)” value [6]?
A: extremely high heparin capacity

Q: What about the “Heparin Capacity” value [6] of the same sequence?
A: 450.8 ng

Q: And the pKd [6]?
A: 6.01

Q: What about the “pmol added to well … E. coli O111:B4” value [1] of the same sequence?
A: 244.07 pmol

Q: What about the “pmol added to well to achieve a 30 mm^2 bactericidal zone, S. aureus” value (Staphylococcus aureus) of the same sequence?
A: 1,057.56 pmol

Q: And the “bactericidal activity (in words)” value [2]?
A: highly bactericidal

Q: What about the “pmol added to well … E. coli J5” value [2] of the same sequence?
A: 56.68 pmol

Q: And the “Quenching Heparin” value [7]?
A: 42%

Q: What about the pKd ([7]; Stern-Volmer plots) of the same sequence?
A: 6.40

Q: And the “bactericidal activity (in words)” value [8]?
A: active against antibiotic resistant Klebsiella

Q: And the “EC50 (peptide concentration at which the growth inhibitory effect of LPS was reversed by 50%)” value (RAW 264.7 cells)?
A: 0.11 ± 0.07 µg/mL

Q: And the “IC50 (peptide concentration at which RAW cell growth was inhibited by 50%)” value (RAW 264.7 cells)?
A: 2.4 ± 0.3 µg/mL

Q: Which “bactericidal activity (in words)” value (E. coli O75) does the source give for KWKAQKRFLK [BPI.8] here?
A: no bactericidal activity

Q: What about the “heparin binding activity (in words)” value [6] of the same sequence?
A: little or no heparin binding activity

Q: And the “heparin binding capacity (in words)” value [6]?
A: low heparin binding capacity

Q: And the “Heparin Capacity” value [6]?
A: 92.2 ng

Q: And the pKd [6]?
A: 6.24

Q: And the “bactericidal activity (in words)” value (E. coli strain 07-K1)?
A: low levels of bactericidal activity

Q: What about the “bactericidal activity (in words)” value ([1]; E. coli 0111:B4) of the same sequence?
A: little to no bactericidal activity

Q: And the “pmol added to well … E. coli O111:B4” value [1]?
A: b (no detectable activity up to 5 μg/well)

Q: And the “bactericidal activity (in words)” value (Staphylococcus aureus; FIG. 10e)?
A: no bactericidal activity at concentrations of 800 μg/mL

Q: And the “bactericidal activity (in words)” value [2]?
A: little to no bactericidal activity; also recorded: no detectable bactericidal activity against E. coli J5 cells at concentrations of 1000 μg/mL; also recorded: little or no bactericidal activity

Q: And the “pmol added to well … E. coli J5” value [2]?
A: 25,695.10 pmol

Q: And the “bactericidal activity (in words)” value (Klebsiella pneumoniae; FIG. 11c, up to about 2000 pmol)?
A: no bactericidal activity

Q: And the “bactericidal activity (in words)” value (Klebsiella pneumoniae; FIG. 10d)?
A: no bactericidal activity at concentrations of 800 μg/mL

Q: What about the “LAL / LPS inhibition activity (in words)” value (E. coli 0113 LPS) of the same sequence?
A: no significant LPS inhibition activity

Q: And the “bactericidal activity (in words)” value (E. coli O18:K1:H7)?
A: no bactericidal activity

Q: What about the “bactericidal activity (in words)” value (Pseudomonas aeruginosa) of the same sequence?
A: no bactericidal activity
